Patent US20230086099A1, “COMBINATION THERAPY FOR TREATMENT OF CANCER AND CANCER METASTASIS” (ONA Therapeutics, S.L., priority 2020, published 2023)

B1: ONA-0: anti-CD36 antibody ONA-0 (also known as ONA-0-v1; as described in U.S. Patent Application No. 63/117,529) (antibody)
heavy: QVQLKQSGADLVRPGASVKLSCKASGYTFTDYYINWVKQRPGQGLEWIARIYPGSGNTYYNEKFKGKATLTAEKSSSTAYMQLSSLTSEDSAVYFCARGIGGGFGMDYWGQGTSVTVSSESARNPTIYPLTLPPVLCSDPVIIGCLIHDYFPFGTMNVTWGKSGKDITTVNFPPALASGGRYTMSSQLTLPAVECPEGESVKCSVQHDSNPVQELDVNCSPTPPPPITIPSCQPSLSLQRPALEDLLLGSDASITCTLNGLRNPEGAAFTWEPSTGKDAVQKKAAQNSCGCYSVSSVLPGCAERWNSGASFKCTVTHPESGTLTGTIAKVTVNTFPPQVHLLPPPSEELALNELLSLTCLVRAFNPKEVLVRWLHGNEELSPESYLVFEPLKEPGEGATTYLVTSVLRVSAETWKQGDQYSCMVGHEALPMNFTQKTIDRLSGKPTNVSVSVIMSEGDGICY
light: SIVMTQTPKFLLVSAGDRITITCKASQSVSDDVAWYQQKPGQSPKLLIYYASNRYTGVPDRFTGSGYGTDFTFTISTVQAEDLAVYFCQQDYSSPLTFGAGTKLEIKRADAAPTVSIFPPSSEQLTSGGASVVCFLNNFYPKDINVKWKIDGSERQNGVLNSWTDQDSKDSTYSMSSTLTLTKDEYERHNSYTCEATHKTSTSPIVKSFNRNEC

Assays:
OVCAR-3 cells = assay: OVCAR-3 orthotopic mouse model of ovarian cancer; assay type: in vivo, NSG mice
Description: Studies of the effects of the combination of ONA-0 anti-CD36 antibody and cisplatin on ovarian cancer were performed in NSG mice (immuno-deficient). The studies included only female mice. All mice were inoculated with commercially available OVCAR-3 (ATCC) cancer cells. OVCAR-3 cells were derived from a human progressive adenocarcinoma of the ovary (i.e., from an ovarian cancer). Prior to inoculation, the OVCAR-3 cells were cultured in a humidified incubator at 37° C. with 5% CO2, and were grown in RPMI-1640 supplemented with 5 μg ml^−1 penicillin/streptomycin, 0.01 mg/ml bovine insulin and 20% FBS (GIBCO). For each mouse, a piece of an OVCAR-3 xenograft was implanted orthotopically. Treatment of the implanted mice began 23 days after implantation with the OVCAR-3 tumor pieces. Inoculated mice were divided into one of two treatment groups: cisplatin injection control (n=9) or cisplatin in combination with ONA-0 treatment (n=8). Antibody treatments were administered via intraperitoneal (i.p.) injection daily at a dose of 3 mg/kg and cisplatin treatments were administered via intraperitoneal (i.p.) injection twice per week at a dose of 2 mg/kg (FIG. 7B). Mice were sacrificed at the end of the treatment period. Upon sacrifice, organs and tissues were collected for performance of immunohistochemistry analysis.

[1] = test system: Detroit oral cancer cells; assay: Detroit oral cancer cells inoculated in NSG mice: anti-CD36 antibody with cisplatin; assay type: in vivo; details: lung metastases from oral cancer, H&E staining of the lungs; FIGS. 2, 3A-3B
Description: (§1) Studies on the combination of anti-CD36 antibody with cisplatin were performed in NSG mice (immuno-deficient) males and females (first experiment mice directly bought, follow up experiments in house breeding) All mice were inoculated with commercially available oral cancer cells Ab dosing was always done daily i.p.
(§2) Two types of oral cancer cell lines were inoculated: • Detroit: “medium” metastatic and very large primary tumor • FaDu: “very strong” metastatic and small primary tumor
(§3) 50,000 or 100,000 cancer cells were inoculated. The starting time of treatment was the amount of days after inoculation of the cancer cells Ab treatment starts.

[2] = test system: FaDu cell line (oral cancer cell line); assay: FaDu oral cancer cells inoculated in NSG mice: lymph node metastases, ONA-0 with cisplatin; assay type: in vivo
Description: as §1, §2, §3

Molecule	SR positive area (collagenous and fibrotic areas) of primary tumors (OVCAR-3 cells; Sirius red staining, FIG. 9C) [%]	primary tumor weight, average (OVCAR-3 cells; at sacrifice, FIG. 9B) [grams]	percent necrosis of primary tumors (OVCAR-3 cells; histology, blinded quantification by a pathologist, FIG. 9C)	percentage of mice with metastasis in the liver (OVCAR-3 cells; macroscopic, visual inspection, FIG. 8A) [%]	percentage of animals with metastasis in the peritoneal wall (OVCAR-3 cells; macroscopic, visual inspection, ONA-0 3 mg/kg i.p. daily, cisplatin 2 mg/kg i.p. twice per week, FIG. 8A) [%]	lung metastases, size and number [1]	efficacy on lymph node metastases ([2]; study of FIGS. 4A-4E)	efficacy on lymph node metastasis ([2]; study of FIGS. 5A-5E and 6A-6B)
N.N.[Cl][Pt][Cl] [cisplatin]	27.45	0.468	approximately 14.2%	11	22	reduces the size of metastases	–	–
B1	–	–	–	–	–	–	demonstrates efficacy on lymph node metastases	effective as a monotherapy
